Read-outs that look alike come from different tables or passages of the source.
Columns and labels:
Type in all cases: in vivo
[1] = test system: Echinochloa crus-galli (ECHCG); assay: Pre-emergence herbicidal action against ECHCG; settings: dosage 320 g/ha
Procedure, shortened: (§1)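 Dosages of 320 g/ha or less; pre-emergence; WP or EC in aqueous spray, 0.5% additive, 600 l/ha; greenhouse; visual % effect after ~3 wk relative to control pots.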

[2] = test system: Matricaria inodora (MATIN); assay: Pre-emergence herbicidal action against MATIN; settings: dosage 320 g/ha
Procedure, shortened: as §1

[3] = test system: Setaria viridis (SETVI); assay: Pre-emergence herbicidal action against SETVI
Procedure, shortened: as §1

[4] = test system: Verconica persica (VERPE); assay: Post-emergence herbicidal action against VERPE
Procedure, shortened: (§2)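 Post-emergence greenhouse spray, one-leaf stage, 600 l/ha water plus 0.5% additive; WP or EC formulations; application rates 320 g/ha or lower. Visual % damage vs untreated controls at ~3 weeks.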

[5] = test system: Matricaria inodora (MATIN); assay: Post-emergence herbicidal action against MATIN
Method: Seeds of monocotyledonous and dicotyledonous weeds and crop plants are placed in sandy loam in plastic or organic planting pots, covered with soil and cultivated in a greenhouse under controlled growth conditions. 2 to 3 weeks after sowing, the test plants are treated at the one-leaf stage. The compounds of the invention, formulated in the form of wettable powders (WP) or as emulsion concentrates (EC), are then sprayed onto the green parts of the plants as aqueous suspension or emulsion with addition of 0.5% additive at a water application rate of 600 l/ha (converted). After the test plants have been kept in the greenhouse under optimum growth conditions for about 3 weeks, the activity of the preparations is rated visually in comparison to untreated controls. For example, 100% activity=the plants have died, 0% activity=like control plants.
Tables B1 to B13 below show the effects of selected compounds of the general formula (I) according to Table 1 on various harmful plants and at an application rate corresponding to 320 g/ha or lower, which were obtained by the experimental procedure mentioned above. The appendices “a”, “b” and “c” give differentiation by dosage used with otherwise the same harmful plants tested.

[6] = test system: Echinochloa crus-galli (ECHCG); assay: Post-emergence herbicidal action against ECHCG
Procedure, shortened: as §2

[7] = test system: Avena fatua (AVEFA); assay: Post-emergence herbicidal action against AVEFA; settings: visual rating about 3 weeks after treatment
Procedure, shortened: as §2

[8] = test system: Oryza sativa (ORYSA); settings: crop plant compatibility
Procedure, shortened: (§3)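 Foliar application at the one-leaf stage: WP/EC formulation, 0.5% additive, 600 l/ha water. Greenhouse-grown in sandy loam. Endpoint is visual % injury relative to untreated controls at about 3 weeks.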

[9] = test system: Zea mays (ZEAMX); settings: 20 g/ha, ZEAMX, effect in comparison to untreated controls
Procedure, shortened: as §3

[10] = test system: Viola tricolor (VIOTR); assay: Pre-emergence herbicidal action against VIOTR; settings: 320 g/ha, Viola tricolor
Procedure, shortened: as §1

[11] = test system: Alopecurus myosuroides (ALOMY); assay: Post-emergence herbicidal action against ALOMY; settings: visual rating about 3 weeks after treatment vs untreated controls (100% = plants have died, 0% = like control plants)
Procedure, shortened: as §2

[12] = test system: Avena fatua (AVEFA); assay: Pre-emergence herbicidal action against AVEFA; settings: visual scoring after about 3 weeks vs untreated controls
Procedure, shortened: as §1

[13] = test system: Polygonum convolvulus (POLCO); assay: Pre-emergence herbicidal action against POLCO
Procedure, shortened: as §1

[14] = test system: Lolium rigidum (LOLRI); assay: Pre-emergence herbicidal action against LOLRI
Procedure, shortened: as §1

[15] = test system: Pharbitis purpurea (PHBPU); assay: Pre-emergence herbicidal action against PHBPU; settings: dosage 320 g/ha
Procedure, shortened: as §1

[16] = test system: Verconica persica (VERPE); assay: Pre-emergence herbicidal action against VERPE
Procedure, shortened: as §1

[17] = test system: Amaranthus retroflexus (AMARE); assay: Post-emergence herbicidal action against AMARE
Procedure, shortened: as §2

[18] = test system: Alopecurus myosuroides (ALOMY); assay: Pre-emergence herbicidal action against ALOMY; settings: scored visually after about 3 weeks, 100% = plants have died
Procedure, shortened: as §1

[19] = test system: Amaranthus retroflexus (AMARE); assay: Pre-emergence herbicidal action against AMARE; settings: visual scoring after about 3 weeks vs untreated controls
Procedure, shortened: as §1

[20] = test system: Lolium rigidum (LOLRI); assay: Post-emergence herbicidal action against LOLRI; settings: dosage 320 g/ha
Procedure, shortened: as §2

[21] = test system: Setaria viridis (SETVI); assay: Post-emergence herbicidal action against SETVI
Procedure, shortened: as §2

[22] = test system: Viola tricolor (VIOTR); assay: Post-emergence herbicidal action against VIOTR; settings: 320 g/ha
Procedure, shortened: as §2

[23] = test system: Pharbitis purpurea (PHBPU); assay: Post-emergence herbicidal action against PHBPU
Procedure, shortened: as §2

[24] = 80 g/ha, visual rating about 3 weeks after treatment vs untreated controls (100% = plants have died, 0% = like control plants)

Compound	Pre-emergence action against ECHCG in % [1]	Pre-emergence action against MATIN in % [2]	Pre-emergence action against SETVI in % ([3]; dosage 320 g/ha)	Post-emergence action against VERPE in % ([4]; dosage 80 g/ha)	Post-emergence action against MATIN in % ([5]; dosage 80 g/ha)	Post-emergence action against ECHCG in % ([6]; dosage 80 g/ha)	Pre-emergence action against VIOTR in % [10]	Post-emergence action against ALOMY in % ([11]; 80 g/ha)	Pre-emergence action against AVEFA in % ([12]; 320 g/ha)	Pre-emergence action against POLCO in % ([13]; dosage 320 g/ha)	Pre-emergence action against LOLRI in % ([14]; dosage 320 g/ha)	Pre-emergence action against PHBPU in % [15]	Pre-emergence action against VERPE in % ([16]; dosage 320 g/ha)	Post-emergence action against AMARE in % [17, 24]	Pre-emergence action against ALOMY ([18]; 80 g/ha)	Pre-emergence action against ALOMY ([18]; 320 g/ha)	Pre-emergence action against AMARE in % ([19]; 80 g/ha)	Pre-emergence action against AMARE in % ([19]; 320 g/ha)	also measured
O=C(O)COc1nn(-c2ccccn2)c(-c2ccc(F)nc2)c1Cl [Example I-98]	100%	90%	100%	80%	80%	80%	100%	90%	80%	90%	100%	90%	100%	80%	90%	100%	100%	100%	Post-emergence action against AVEFA in % ([7]; 80 g/ha): 80%; Post-emergence action against ORYSA in % ([8]; 20 g/ha, effect vs untreated controls): 10%; Post-emergence action against ZEAMX in % (crop plant compatibility) [9]: 10%
C=C(COC(=O)COc1nn(-c2ccccn2)c(-c2ccc(F)nc2)c1Br)C(=O)OC [Example I-370]	100%	100%	100%	90%	80%	80%	100%	100%	90%	100%	100%	90%	100%	80%	80%	100%	100%	100%	Pre-emergence action against SETVI in % ([3]; dosage 80 g/ha): 100%; Post-emergence action against VERPE in % ([4]; 320 g/ha, VERPE): 90%; Post-emergence action against LOLRI in % [20]: 90%; Post-emergence action against MATIN in % ([5]; dosage 320 g/ha): 80%; Post-emergence action against ECHCG in % ([6]; dosage 320 g/ha): 80%; Post-emergence action against SETVI in % ([21]; dosage 80 g/ha): 80%; Post-emergence action against SETVI in % ([21]; dosage 320 g/ha): 80%; Post-emergence action against AVEFA in % ([7]; 320 g/ha): 90%; Post-emergence action against ORYSA in % ([8]; 80 g/ha, effect in comparison to untreated controls): 0%; Post-emergence action against ALOMY in % ([11]; 320 g/ha): 100%; Pre-emergence action against AVEFA in % ([12]; 80 g/ha): 90%; Pre-emergence action against POLCO in % ([13]; dosage 80 g/ha): 80%; Pre-emergence action against LOLRI in % ([14]; dosage 80 g/ha): 90%; Post-emergence action against VIOTR in % [22]: 80%; Pre-emergence action against VERPE in % ([16]; dosage 80 g/ha): 90%; Post-emergence action against PHBPU in % ([23]; dosage 80 g/ha): 80%; Post-emergence action against PHBPU in % ([23]; dosage 320 g/ha): 90%; Post-emergence action against AMARE in % ([17]; 320 g/ha, visual rating about 3 weeks after treatment): 80%

Source: patent US20240041042A1, “1-(PYRIDYL)-5-AZINYLPYRAZOLE DERIVATIVES, AND THEIR USE FOR CONTROL OF UNDESIRED PLANT GROWTH” (Bayer Aktiengesellschaft, priority 2020, published 2024)
